The data set can be described thus: pH of 1% aqueous solution. The format is physicochemical. As to conditions: polyoxyethylene alkyl ether carboxylate.

From patent US12138329B2, “Gel cleansing agent” (SHISEIDO HONEYCAKE INDUSTRIES CO., LTD., priority 2019, dated 2024) come the findings set out here.

For NaOH, the “pH of 1% aqueous solution, 60% neutralization” value (60% neutralization) is “about 5.7”. The “pH of 1% aqueous solution, 90% neutralization” value (90% neutralization) was “about 6.5”. In addition, where the note is “100% neutralization”, the “pH of 1% aqueous solution, 100% neutralization” value was “about 7.8”.
